Measurements: PubChem BioAssay (NCI)
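96-well plates; 48 h exposure; 5 concentrations. Endpoints by linear interpolation between flanking doses. Not reached: highest tested concentration assigned. The concentration for 50% growth inhibition is given as GI50. At the TGI there is no net growth.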

What was measured:
Assay in all cases: DTP human tumour cell line panel, 48 h
[1] = tested on: HT29 colon
[2] = tested on: RPMI-8226 leukemia
[3] = tested on: NCI-H23 lung
[4] = tested on: SF-539 CNS
[5] = tested on: NCI/ADR-RES ovarian
[6] = tested on: RXF 393 renal
[7] = tested on: SK-MEL-2 melanoma
[8] = tested on: PC-3 prostate
[9] = tested on: NCI-H460 lung
[10] = tested on: SF-268 CNS
[11] = tested on: UO-31 renal
[12] = tested on: A549 NSCLC
[13] = tested on: KM12 colon
[14] = tested on: SN12C renal
[15] = tested on: MCF7 breast
[16] = tested on: ACHN renal
[17] = tested on: T-47D breast
[18] = tested on: UACC-62 melanoma
[19] = tested on: HOP-62 NSCLC
[20] = tested on: MDA-MB-231 breast
[21] = tested on: HL-60(TB) leukemia
[22] = tested on: SW-620 colon
[23] = tested on: MDA-MB-435
[24] = tested on: NCI-H226 lung
[25] = tested on: NCI-H522 lung
[26] = tested on: SNB-19 CNS
[27] = tested on: K-562 leukemia
[28] = tested on: CCRF-CEM leukemia
[29] = tested on: 786-0 renal
[30] = tested on: TK-10 renal
[31] = tested on: HCC-2998 colon
[32] = tested on: OVCAR-4 ovarian
[33] = tested on: SNB-75 CNS
[34] = tested on: U251 CNS
[35] = tested on: SF-295 CNS
[36] = tested on: MOLT-4 leukemia
[37] = tested on: COLO 205 colon
[38] = tested on: UACC-257 melanoma
[39] = tested on: HCT-15 colon
[40] = tested on: SK-MEL-5 melanoma
[41] = tested on: IGROV1 ovarian
[42] = tested on: MALME-3M melanoma
[43] = tested on: LOX IMVI melanoma
[44] = tested on: A498 renal
[45] = tested on: CAKI-1 renal
[46] = tested on: OVCAR-5 ovarian
[47] = tested on: BT-549 breast
[48] = tested on: HS 578T breast
[49] = tested on: HCT-116 colon
[50] = tested on: OVCAR-8 ovarian
[51] = tested on: OVCAR-3 ovarian
[52] = tested on: DU-145 prostate
[53] = tested on: M14 melanoma
[54] = tested on: SR leukemia
[55] = tested on: SK-OV-3 ovarian
[56] = tested on: SK-MEL-28 melanoma

What does the source list for `CCNC(=O)[C@@H]1CCCN2C(=O)CC[C@H](NC(=O)[C@H](Cc3ccc(OP(=O)(O)O)cc3)NC(C)=O)C(=O)N12`?
GI50 [1]: > 25 µM; TGI [1]: > 25 µM; GI50 [2]: > 25 µM; TGI [2]: > 25 µM; GI50 [3]: > 25 µM; TGI [3]: > 25 µM; GI50 [4]: > 25 µM; TGI [4]: > 25 µM; GI50 [5]: > 25 µM; TGI [5]: > 25 µM; GI50 [6]: > 25 µM; TGI [6]: > 25 µM; GI50 [7]: > 25 µM; TGI [7]: > 25 µM; GI50 [8]: > 25 µM; TGI [8]: > 25 µM; GI50 [9]: > 25 µM; TGI [9]: > 25 µM; GI50 [10]: > 25 µM; TGI [10]: > 25 µM; GI50 [11]: > 25 µM; TGI [11]: > 25 µM; GI50 [12]: > 25 µM; TGI [12]: > 25 µM; GI50 [13]: > 25 µM; TGI [13]: > 25 µM; GI50 [14]: > 25 µM; TGI [14]: > 25 µM; GI50 [15]: > 25 µM; TGI [15]: > 25 µM; GI50 [16]: > 25 µM; TGI [16]: > 25 µM; GI50 [17]: > 25 µM; TGI [17]: > 25 µM; GI50 [18]: > 25 µM; TGI [18]: > 25 µM; GI50 [19]: > 25 µM; TGI [19]: > 25 µM; GI50 [20]: > 25 µM; TGI [20]: > 25 µM; GI50 [21]: > 25 µM; TGI [21]: > 25 µM; GI50 [22]: > 25 µM; TGI [22]: > 25 µM; GI50 [23]: > 25 µM; TGI [23]: > 25 µM; GI50 [24]: > 25 µM; TGI [24]: > 25 µM; GI50 [25]: > 25 µM; TGI [25]: > 25 µM; GI50 [26]: > 25 µM; TGI [26]: > 25 µM; GI50 [27]: > 25 µM; TGI [27]: > 25 µM; GI50 [28]: > 25 µM; TGI [28]: > 25 µM; GI50 [29]: > 25 µM; TGI [29]: > 25 µM; GI50 [30]: > 25 µM; TGI [30]: > 25 µM; GI50 [31]: > 25 µM; TGI [31]: > 25 µM; GI50 [32]: > 25 µM; TGI [32]: > 25 µM; GI50 [33]: > 25 µM; TGI [33]: > 25 µM; GI50 [34]: > 25 µM; TGI [34]: > 25 µM; GI50 [35]: > 25 µM; TGI [35]: > 25 µM; GI50 [36]: > 25 µM; TGI [36]: > 25 µM; GI50 [37]: > 25 µM; TGI [37]: > 25 µM; GI50 [38]: > 25 µM; TGI [38]: > 25 µM; GI50 [39]: > 25 µM; TGI [39]: > 25 µM; GI50 [40]: > 25 µM; TGI [40]: > 25 µM; GI50 [41]: > 25 µM; TGI [41]: > 25 µM; GI50 [42]: > 25 µM; TGI [42]: > 25 µM; GI50 [43]: > 25 µM; TGI [43]: > 25 µM; GI50 [44]: > 25 µM; TGI [44]: > 25 µM; GI50 [45]: > 25 µM; TGI [45]: > 25 µM; GI50 [46]: > 25 µM; TGI [46]: > 25 µM; GI50 [47]: > 25 µM; TGI [47]: > 25 µM; GI50 [48]: > 25 µM; TGI [48]: > 25 µM; GI50 [49]: > 25 µM; TGI [49]: > 25 µM; GI50 [50]: > 25 µM; TGI [50]: > 25 µM; GI50 [51]: > 25 µM; TGI [51]: > 25 µM; GI50 [52]: > 25 µM; TGI [52]: > 25 µM; GI50 [53]: > 25 µM; TGI [53]: > 25 µM; GI50 [54]: > 25 µM; TGI [54]: > 25 µM; GI50 [55]: > 25 µM; TGI [55]: > 25 µM; GI50 [56]: > 25 µM; TGI [56]: > 25 µM
